Results reported in EP1801111A1, “Novel polymorph forms of olmesartan medoxomil” (LEK Pharmaceuticals d.d., priority 2005, dated 2007).

How the values were obtained:
[1] = 1 n hcl
[2] = Hygroscopicity: mass change after exposing to air moisture; type: physicochemical; conditions: for increase of the mass of the sample: after exposing to air moisture for 6 days

Structure (SMILES) | solubility in 1 N HCI [1] | increase of the mass of the sample ([2]; hemihydrate) | hygroscopicity (in words) ([2]; compared with the prior art substance) | increase of the mass of the sample [2]
CCCc1nc(C(C)(C)O)c(C(=O)OCc2oc(=O)oc2C)n1Cc1ccc(-c2ccccc2-c2nnn[nH]2)cc1 [olmesartan medoxomil hemihydrate] | around 3 mg/ml | did not increase | not hydroscopic | 
CCCc1nc(C(C)(C)O)c(C(=O)OCc2oc(=O)oc2C)n1Cc1ccc(-c2ccccc2-c2nnn[nH]2)cc1 [partially crystalline or amorphous, olmesartan medoxomil] | up to 7 mg/ml |  |  | 
CCCc1nc(C(C)(C)O)c(C(=O)OCc2oc(=O)oc2C)n1Cc1ccc(-c2ccccc2-c2nnn[nH]2)cc1 [prior art substance, olmesartan medoxomil] | approximately 2 mg |  |  | 0,61%
